Reference: publication PMC12114461, “A Natural Inhibitor, 1′S-1′-Acetoxychavicol Acetate, Against Testosterone-Induced Alopecia via NADPH Oxidase Regulation” (Molecules, 2025)

What was measured:
Format in all cases: biochemical
Nox2 (hNox2) = biological target: T1, Nox2 (hNox2) (Homo sapiens, UniProt P04839); assay: lucigenin chemiluminescence ROS assay in Drosophila membranes expressing hNox2
T1 construct: gene CYBB; membranes from transgenic Drosophila (Duox knockdown) over-expressing human Nox2
T1 sequence (P04839 2-570): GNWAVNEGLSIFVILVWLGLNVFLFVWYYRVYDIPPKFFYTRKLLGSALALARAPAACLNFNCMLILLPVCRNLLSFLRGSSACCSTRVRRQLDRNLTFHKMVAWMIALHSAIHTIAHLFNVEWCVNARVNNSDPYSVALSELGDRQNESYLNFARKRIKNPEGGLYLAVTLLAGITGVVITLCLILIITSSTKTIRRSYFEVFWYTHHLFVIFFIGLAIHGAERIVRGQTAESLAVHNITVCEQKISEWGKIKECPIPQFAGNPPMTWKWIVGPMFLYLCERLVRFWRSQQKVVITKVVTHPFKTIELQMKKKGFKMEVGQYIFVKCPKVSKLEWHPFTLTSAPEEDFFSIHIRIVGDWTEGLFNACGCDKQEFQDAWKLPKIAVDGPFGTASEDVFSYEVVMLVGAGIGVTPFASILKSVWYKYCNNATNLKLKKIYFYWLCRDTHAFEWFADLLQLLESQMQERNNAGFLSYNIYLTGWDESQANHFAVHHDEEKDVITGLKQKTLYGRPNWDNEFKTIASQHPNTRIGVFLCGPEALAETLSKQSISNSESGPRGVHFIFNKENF

Nox4 (hNox4) = biological target: T2, Nox4 (hNox4) (Homo sapiens, UniProt Q9NPH5); assay: lucigenin chemiluminescence ROS assay in Drosophila membranes expressing hNox4
T2 construct: membranes from transgenic Drosophila (Duox knockdown) over-expressing human Nox4
T2 sequence (Q9NPH5 1-578): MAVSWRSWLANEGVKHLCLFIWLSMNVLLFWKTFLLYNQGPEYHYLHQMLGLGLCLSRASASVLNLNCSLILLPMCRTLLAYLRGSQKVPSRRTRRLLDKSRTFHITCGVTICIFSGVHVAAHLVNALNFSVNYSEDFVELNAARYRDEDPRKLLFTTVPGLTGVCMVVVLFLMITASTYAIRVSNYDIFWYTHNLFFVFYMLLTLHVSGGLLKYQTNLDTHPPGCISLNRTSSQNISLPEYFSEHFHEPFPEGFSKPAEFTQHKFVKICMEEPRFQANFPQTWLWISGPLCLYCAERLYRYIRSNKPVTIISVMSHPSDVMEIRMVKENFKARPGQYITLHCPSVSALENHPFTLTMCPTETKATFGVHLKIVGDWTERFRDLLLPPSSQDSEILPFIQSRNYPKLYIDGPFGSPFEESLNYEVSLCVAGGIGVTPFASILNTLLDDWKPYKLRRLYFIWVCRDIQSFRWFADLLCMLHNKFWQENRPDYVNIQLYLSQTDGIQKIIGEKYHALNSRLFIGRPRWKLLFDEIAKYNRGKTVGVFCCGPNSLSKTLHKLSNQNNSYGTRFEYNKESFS

Nox1 (hNox1) = biological target: T3, Nox1 (hNox1) (Homo sapiens, UniProt Q9Y5S8); assay: lucigenin chemiluminescence ROS assay in Drosophila membranes expressing hNox1
T3 construct: membranes from transgenic Drosophila (Duox knockdown) over-expressing human Nox1
T3 sequence (Q9Y5S8 1-564): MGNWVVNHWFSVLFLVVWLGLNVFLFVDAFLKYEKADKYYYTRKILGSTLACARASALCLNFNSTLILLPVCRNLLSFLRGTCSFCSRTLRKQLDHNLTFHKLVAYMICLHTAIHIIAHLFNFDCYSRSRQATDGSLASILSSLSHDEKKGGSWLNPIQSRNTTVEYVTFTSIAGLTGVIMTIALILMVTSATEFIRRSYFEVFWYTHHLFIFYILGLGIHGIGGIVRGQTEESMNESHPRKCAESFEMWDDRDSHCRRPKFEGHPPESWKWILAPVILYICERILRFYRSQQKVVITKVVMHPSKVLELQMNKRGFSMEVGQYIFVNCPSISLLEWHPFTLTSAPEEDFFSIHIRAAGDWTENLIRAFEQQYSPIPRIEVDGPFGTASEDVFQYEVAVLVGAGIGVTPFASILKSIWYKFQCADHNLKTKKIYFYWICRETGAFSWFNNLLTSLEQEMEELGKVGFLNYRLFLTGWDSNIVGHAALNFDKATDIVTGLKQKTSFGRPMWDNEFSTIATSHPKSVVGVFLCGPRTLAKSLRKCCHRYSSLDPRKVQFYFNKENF

Duox1 (hDuox1) = biological target: T4, Duox1 (hDuox1) (Homo sapiens, UniProt Q9NRD9); assay: lucigenin chemiluminescence ROS assay in Drosophila membranes expressing hDuox1
T4 construct: membranes from transgenic Drosophila (Duox knockdown) over-expressing human Duox1
T4 sequence (Q9NRD9 22-1551): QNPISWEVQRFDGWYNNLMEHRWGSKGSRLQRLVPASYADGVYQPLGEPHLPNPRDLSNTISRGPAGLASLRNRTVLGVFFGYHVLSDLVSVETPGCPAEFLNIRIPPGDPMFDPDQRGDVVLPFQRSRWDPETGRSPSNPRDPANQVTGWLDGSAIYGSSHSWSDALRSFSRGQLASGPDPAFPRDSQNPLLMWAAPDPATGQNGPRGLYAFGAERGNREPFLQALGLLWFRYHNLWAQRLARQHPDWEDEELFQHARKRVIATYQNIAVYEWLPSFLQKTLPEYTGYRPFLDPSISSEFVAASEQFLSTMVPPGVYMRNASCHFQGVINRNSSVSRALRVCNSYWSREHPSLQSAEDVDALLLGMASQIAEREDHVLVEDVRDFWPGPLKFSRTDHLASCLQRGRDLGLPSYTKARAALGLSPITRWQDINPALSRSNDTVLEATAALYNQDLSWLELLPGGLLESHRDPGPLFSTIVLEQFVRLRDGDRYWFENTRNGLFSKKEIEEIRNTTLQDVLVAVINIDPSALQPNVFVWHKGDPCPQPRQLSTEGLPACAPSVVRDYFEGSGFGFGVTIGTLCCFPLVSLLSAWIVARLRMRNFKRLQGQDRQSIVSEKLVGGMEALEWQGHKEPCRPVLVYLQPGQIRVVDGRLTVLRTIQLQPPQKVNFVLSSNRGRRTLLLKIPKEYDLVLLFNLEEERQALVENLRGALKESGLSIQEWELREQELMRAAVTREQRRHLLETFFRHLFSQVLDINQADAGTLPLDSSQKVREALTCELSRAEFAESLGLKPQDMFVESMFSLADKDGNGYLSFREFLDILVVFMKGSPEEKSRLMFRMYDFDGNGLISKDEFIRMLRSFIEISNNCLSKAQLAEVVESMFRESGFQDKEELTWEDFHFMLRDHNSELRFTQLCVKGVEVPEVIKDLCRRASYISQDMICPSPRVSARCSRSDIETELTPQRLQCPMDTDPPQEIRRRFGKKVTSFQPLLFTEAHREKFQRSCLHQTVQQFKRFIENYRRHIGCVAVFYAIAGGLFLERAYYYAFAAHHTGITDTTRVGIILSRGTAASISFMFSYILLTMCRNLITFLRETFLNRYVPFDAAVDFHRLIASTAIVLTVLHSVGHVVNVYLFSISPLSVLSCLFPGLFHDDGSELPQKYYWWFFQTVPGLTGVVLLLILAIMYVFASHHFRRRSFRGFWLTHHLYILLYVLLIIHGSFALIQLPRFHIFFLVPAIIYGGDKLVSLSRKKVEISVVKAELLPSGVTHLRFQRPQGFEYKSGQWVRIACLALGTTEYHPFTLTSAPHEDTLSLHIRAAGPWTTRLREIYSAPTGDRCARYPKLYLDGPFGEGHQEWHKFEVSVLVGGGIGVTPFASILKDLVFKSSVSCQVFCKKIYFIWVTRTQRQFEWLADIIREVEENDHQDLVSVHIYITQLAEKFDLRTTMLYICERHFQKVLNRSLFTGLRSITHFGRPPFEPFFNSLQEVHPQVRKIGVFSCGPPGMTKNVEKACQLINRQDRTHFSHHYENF

## C=C[C@H](OC(C)=O)c1ccc(OC(C)=O)cc1 [compound 26, 1′S-1′-acetoxychavicol acetate]
Nox2 (hNox2)
  IC50: 42.3 µM
Nox4 (hNox4)
  IC50: 31.3 µM
Nox1 (hNox1)
  IC50: 32.7 µM
Duox1 (hDuox1)
  IC50: 30.8 µM
